Source: PubChem BioAssay (NCI)
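Growth conditions: 96-well plates. Treatment: test compound, 48 hours, 5 concentrations. Analysis: linear interpolation between bracketing concentrations; unreached endpoints set to highest concentration. At the GI50, growth is halved. TGI denotes the concentration required for complete inhibition of growth.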

How the values were obtained:
Test in all cases: NCI tumour cell line growth inhibition, 48 h
T-47D breast = tested on: T-47D breast
OVCAR-8 ovarian = tested on: OVCAR-8 ovarian
SK-OV-3 ovarian = tested on: SK-OV-3 ovarian
SF-295 CNS = tested on: SF-295 CNS
A498 renal = tested on: A498 renal
RPMI-8226 leukemia = tested on: RPMI-8226 leukemia
COLO 205 colon = tested on: COLO 205 colon
HCT-116 colon = tested on: HCT-116 colon
OVCAR-5 ovarian = tested on: OVCAR-5 ovarian
SK-MEL-2 melanoma = tested on: SK-MEL-2 melanoma
MDA-MB-231 breast = tested on: MDA-MB-231 breast
MCF7 breast = tested on: MCF7 breast
HCT-15 colon = tested on: HCT-15 colon
SNB-75 CNS = tested on: SNB-75 CNS
M14 melanoma = tested on: M14 melanoma
SF-539 CNS = tested on: SF-539 CNS
KM12 colon = tested on: KM12 colon
K-562 leukemia = tested on: K-562 leukemia
NCI-H226 lung = tested on: NCI-H226 lung
NCI-H522 lung = tested on: NCI-H522 lung
IGROV1 ovarian = tested on: IGROV1 ovarian
NCI-H460 lung = tested on: NCI-H460 lung
SF-268 CNS = tested on: SF-268 CNS
SR leukemia = tested on: SR leukemia
MDA-MB-435 = tested on: MDA-MB-435
HOP-92 NSCLC = tested on: HOP-92 NSCLC
EKVX NSCLC = tested on: EKVX NSCLC
HCC-2998 colon = tested on: HCC-2998 colon

c1ccc2nc(Cn3c[n+](Cc4ccc5ccccc5n4)c4ccccc43)ccc2c1
GI50 (T-47D breast): 0.785 µM | TGI (T-47D breast): 9.65 µM | GI50 (OVCAR-8 ovarian): 3.13 µM | TGI (OVCAR-8 ovarian): 11.3 µM | GI50 (SK-OV-3 ovarian): 3.03 µM | TGI (SK-OV-3 ovarian): 11.3 µM | GI50 (SF-295 CNS): 2.69 µM | TGI (SF-295 CNS): 11.9 µM | GI50 (A498 renal): 2.24 µM | TGI (A498 renal): 10.2 µM | GI50 (RPMI-8226 leukemia): 0.681 µM | TGI (RPMI-8226 leukemia): 4.05 µM | GI50 (COLO 205 colon): 1.37 µM | TGI (COLO 205 colon): 3.22 µM | GI50 (HCT-116 colon): 2.4 µM | TGI (HCT-116 colon): 12.2 µM | GI50 (OVCAR-5 ovarian): 2.43 µM | TGI (OVCAR-5 ovarian): 13.7 µM | GI50 (SK-MEL-2 melanoma): 2.61 µM | TGI (SK-MEL-2 melanoma): 6.87 µM | GI50 (MDA-MB-231 breast): 1.59 µM | TGI (MDA-MB-231 breast): 4.46 µM | GI50 (MCF7 breast): 1.91 µM | TGI (MCF7 breast): 11.5 µM | GI50 (HCT-15 colon): 15.1 µM | TGI (HCT-15 colon): 32.6 µM | GI50 (SNB-75 CNS): 2.09 µM | TGI (SNB-75 CNS): 9.13 µM | GI50 (M14 melanoma): 1.99 µM | TGI (M14 melanoma): 6.99 µM | GI50 (SF-539 CNS): 2.61 µM | TGI (SF-539 CNS): 12 µM | GI50 (KM12 colon): 1.61 µM | TGI (KM12 colon): 4.54 µM | GI50 (K-562 leukemia): 1.25 µM | TGI (K-562 leukemia): 11.8 µM | GI50 (NCI-H226 lung): 4.13 µM | TGI (NCI-H226 lung): 20.4 µM | GI50 (NCI-H522 lung): 1.56 µM | TGI (NCI-H522 lung): 9.72 µM | GI50 (IGROV1 ovarian): 1.65 µM | TGI (IGROV1 ovarian): 8.27 µM | GI50 (NCI-H460 lung): 2.8 µM | TGI (NCI-H460 lung): 12.3 µM | GI50 (SF-268 CNS): 2.97 µM | TGI (SF-268 CNS): 14.2 µM | GI50 (SR leukemia): 1.69 µM | TGI (SR leukemia): 5.48 µM | GI50 (MDA-MB-435): 1.63 µM | TGI (MDA-MB-435): 4.37 µM | GI50 (HOP-92 NSCLC): 0.93 µM | TGI (HOP-92 NSCLC): 4.3 µM | GI50 (EKVX NSCLC): 5.7 µM | TGI (EKVX NSCLC): 23.7 µM | GI50 (HCC-2998 colon): 2.76 µM | TGI (HCC-2998 colon): 13.6 µM
